From ChEMBL document CHEMBL1201862, “PubChem BioAssay data set” (2004)
Activity calls are given as the source filed them.

Assays:
[1] = biological target: T1, Sentrin-specific protease 7 (Homo sapiens, UniProt Q9BQF6); format: functional;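 further: Luminescence-based dose-response confirmation of ultra-high-throughput screening hits, measuring inhibition of SENP7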
T1 sequence (Q9BQF6 whole entry): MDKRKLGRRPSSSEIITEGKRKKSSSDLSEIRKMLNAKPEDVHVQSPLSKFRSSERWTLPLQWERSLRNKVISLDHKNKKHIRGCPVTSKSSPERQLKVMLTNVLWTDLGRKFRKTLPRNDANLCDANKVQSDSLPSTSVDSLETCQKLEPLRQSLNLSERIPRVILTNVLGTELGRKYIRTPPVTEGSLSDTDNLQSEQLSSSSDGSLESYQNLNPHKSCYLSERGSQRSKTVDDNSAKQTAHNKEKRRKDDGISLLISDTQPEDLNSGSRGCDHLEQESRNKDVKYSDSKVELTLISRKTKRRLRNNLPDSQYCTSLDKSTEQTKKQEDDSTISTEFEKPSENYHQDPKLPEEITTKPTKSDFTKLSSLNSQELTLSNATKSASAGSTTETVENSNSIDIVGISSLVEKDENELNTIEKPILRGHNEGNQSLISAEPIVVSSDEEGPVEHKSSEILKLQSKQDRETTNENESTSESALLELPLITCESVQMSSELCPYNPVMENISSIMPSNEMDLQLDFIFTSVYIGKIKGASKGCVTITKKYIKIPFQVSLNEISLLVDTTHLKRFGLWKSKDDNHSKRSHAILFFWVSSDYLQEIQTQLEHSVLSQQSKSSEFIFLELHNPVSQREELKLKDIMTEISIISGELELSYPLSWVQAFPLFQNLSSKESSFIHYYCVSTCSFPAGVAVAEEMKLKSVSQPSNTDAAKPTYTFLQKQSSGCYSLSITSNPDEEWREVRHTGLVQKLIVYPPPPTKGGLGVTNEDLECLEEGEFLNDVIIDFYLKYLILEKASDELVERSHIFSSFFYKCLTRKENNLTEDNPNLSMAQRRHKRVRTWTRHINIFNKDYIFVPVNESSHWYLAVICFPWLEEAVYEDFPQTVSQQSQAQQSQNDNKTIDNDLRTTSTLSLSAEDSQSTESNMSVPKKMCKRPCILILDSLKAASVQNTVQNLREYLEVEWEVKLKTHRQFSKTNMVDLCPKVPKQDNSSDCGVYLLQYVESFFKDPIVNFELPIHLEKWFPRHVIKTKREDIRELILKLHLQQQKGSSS

[2] = biological target: T2, Sentrin-specific protease 6 (Homo sapiens, UniProt Q9GZR1); format: functional;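 further: Luminescence-based dose-response confirmatory assay of SENP6 inhibition, following up an ultra-high-throughput screen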
T2 sequence (Q9GZR1 whole entry): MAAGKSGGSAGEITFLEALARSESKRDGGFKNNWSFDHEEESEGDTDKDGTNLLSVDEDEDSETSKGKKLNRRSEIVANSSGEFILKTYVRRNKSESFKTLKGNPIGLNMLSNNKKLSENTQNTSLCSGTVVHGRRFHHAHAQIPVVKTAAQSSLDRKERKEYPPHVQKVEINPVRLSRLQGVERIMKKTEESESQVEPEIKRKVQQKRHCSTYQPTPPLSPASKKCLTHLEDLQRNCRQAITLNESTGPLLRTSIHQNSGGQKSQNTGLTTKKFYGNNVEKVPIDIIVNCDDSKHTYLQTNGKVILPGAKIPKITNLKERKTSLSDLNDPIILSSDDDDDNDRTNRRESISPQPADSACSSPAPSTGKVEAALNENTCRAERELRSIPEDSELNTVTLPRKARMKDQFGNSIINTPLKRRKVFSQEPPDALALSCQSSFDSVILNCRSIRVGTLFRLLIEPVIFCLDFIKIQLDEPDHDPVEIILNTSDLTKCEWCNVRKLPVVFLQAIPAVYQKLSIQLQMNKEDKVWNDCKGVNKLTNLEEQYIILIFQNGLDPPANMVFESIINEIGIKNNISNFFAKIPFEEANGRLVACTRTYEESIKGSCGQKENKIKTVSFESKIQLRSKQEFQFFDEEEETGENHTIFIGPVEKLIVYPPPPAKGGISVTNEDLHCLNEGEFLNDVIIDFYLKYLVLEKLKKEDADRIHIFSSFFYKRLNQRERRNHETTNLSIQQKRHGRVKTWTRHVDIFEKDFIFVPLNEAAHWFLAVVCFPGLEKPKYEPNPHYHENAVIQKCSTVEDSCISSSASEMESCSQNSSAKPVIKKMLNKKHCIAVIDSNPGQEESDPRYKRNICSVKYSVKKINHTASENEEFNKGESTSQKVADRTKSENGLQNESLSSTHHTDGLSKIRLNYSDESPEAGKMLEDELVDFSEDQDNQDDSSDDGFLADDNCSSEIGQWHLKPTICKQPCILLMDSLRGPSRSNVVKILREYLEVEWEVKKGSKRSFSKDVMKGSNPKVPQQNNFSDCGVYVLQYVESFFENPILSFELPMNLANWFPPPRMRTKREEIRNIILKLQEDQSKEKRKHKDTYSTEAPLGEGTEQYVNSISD

[3] = biological target: T3, Sentrin-specific protease 8 (Homo sapiens, UniProt Q96LD8); format: functional;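 further: luminescence read-out of SENP8 inhibition, dose-response confirmation following an ultra-high-throughput screen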
T3 sequence (Q96LD8 whole entry): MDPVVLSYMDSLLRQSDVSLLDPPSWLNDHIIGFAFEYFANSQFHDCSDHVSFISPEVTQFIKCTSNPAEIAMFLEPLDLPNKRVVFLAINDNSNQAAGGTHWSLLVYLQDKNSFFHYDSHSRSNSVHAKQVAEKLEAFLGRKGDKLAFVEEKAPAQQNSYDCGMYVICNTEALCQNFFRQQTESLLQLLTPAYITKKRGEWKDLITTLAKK

Caspase-3 = biological target: T4, Caspase-3 (Homo sapiens, UniProt P42574); format: functional;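 further: Dose-response selectivity test against caspase-3 for candidate inhibitors of sentrin-specific proteases (SENPs)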
T4 sequence (P42574 whole entry): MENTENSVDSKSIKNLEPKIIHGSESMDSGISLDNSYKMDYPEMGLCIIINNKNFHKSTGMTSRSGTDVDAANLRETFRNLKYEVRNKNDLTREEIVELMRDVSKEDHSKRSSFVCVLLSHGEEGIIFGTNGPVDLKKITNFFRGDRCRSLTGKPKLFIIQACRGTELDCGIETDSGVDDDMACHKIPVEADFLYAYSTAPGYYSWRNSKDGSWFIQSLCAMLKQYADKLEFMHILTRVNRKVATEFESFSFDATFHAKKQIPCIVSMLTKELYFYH

[4] = blockers of bursicon-stimulated LGR2 cAMP reporter – cell-based, HEK293, CRE-luciferase reporter, cherry pick, set 2, dose response (AID 743343); format: functional;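 further: transfected cells were stimulated with diluted bursicon conditioned medium after compound addition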
[5] = A549 cell cytotoxicity, dose response, cytotoxicity control, plate reader, cherry-pick, antagonist series (AID 743412); format: functional, cell-based
HEK293 = assay: EBV LMP1 TES2 canonical NF-kB signalling blockers – cell-based, HEK293, luciferase, cherry-pick, dose response (AID 588343); format: functional; conditions: Homo sapiens
[6] = biological target: T5, Nuclear receptor subfamily 0 group B member 1 (Homo sapiens, UniProt P51843); format: functional, cell-based;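 further: HEK293T cells transfected with SF-1 and DAX-1 plus StAR promoter luciferase reporter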
T5 sequence (P51843 whole entry): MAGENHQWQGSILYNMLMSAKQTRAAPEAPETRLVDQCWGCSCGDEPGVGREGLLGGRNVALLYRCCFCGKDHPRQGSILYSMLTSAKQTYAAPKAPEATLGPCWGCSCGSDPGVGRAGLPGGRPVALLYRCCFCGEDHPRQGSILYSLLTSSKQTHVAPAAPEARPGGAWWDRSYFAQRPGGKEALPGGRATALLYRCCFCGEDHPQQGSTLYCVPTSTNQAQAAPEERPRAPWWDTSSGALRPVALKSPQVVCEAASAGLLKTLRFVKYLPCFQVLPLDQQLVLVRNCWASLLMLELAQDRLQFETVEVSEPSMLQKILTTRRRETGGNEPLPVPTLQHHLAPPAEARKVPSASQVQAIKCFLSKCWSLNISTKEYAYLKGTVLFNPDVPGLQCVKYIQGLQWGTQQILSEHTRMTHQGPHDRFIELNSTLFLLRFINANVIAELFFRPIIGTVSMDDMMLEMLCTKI

[7] = blockade of melanocortin 4 receptor signaling – cell-based, plate reader, cherry pick, counter-screen for LGR2 antagonist project, dose response (AID 743444); format: functional;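 further: transfected HEK 293 cells stimulated with alpha-MSH peptide; potency of inhibitors of the alpha-MSH evoked signal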
cells = format: functional, cell-based
BJ [8] = assay: BJ-TERT-LT-ST fibroblast viability loss – cell-based, RAS-independent, luminescence, dose response (AID 1935); format: functional; conditions: Homo sapiens;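 further: BJ fibroblasts immortalized with TERT plus LT and ST oncogenes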
BJ [9] = assay: cells; format: functional, cell-based; conditions: Homo sapiens
[10] = DRD fibroblast viability loss – cell-based, non-viral oncogenic, luminescence, dose response (AID 1934); format: functional; conditions: Homo sapiens
INS1 = assay: INS-1E survival protection against cytokine death – cell-based, luminescence, retest, dose response (AID 449756); format: functional; conditions: Rattus norvegicus;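 further: cell death triggered by IL-1 beta plus TNF-alpha plus IFN-gamma mixture; protective hits raise ATP signal compared with cytokine alone wells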
BJ [11] = assay: BJ-TERT fibroblast viability loss – cell-based, RAS-independent, luminescence, dose response (AID 1933); format: functional; conditions: Homo sapiens
BJ [12] = assay: growth inhibition of engineered Ras-driven BJ cells – cell-based, alamar blue fluorescence, cherrypicked samples, dose response (AID 2631); format: functional; conditions: Homo sapiens;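 further: confirmatory dose-response assay in RAS-dependent BJ fibroblasts engineered with TERT, LT and ST, with cytotoxicity read by fluorescence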
[13] = biological target: T6, Microphthalmia-associated transcription factor (Homo sapiens, UniProt O75030); assay: reducers of TRPM1 reporter luminescence, concentration series – cell-based, SK-MEL-5, cherry-picked, set 3, MITF inhibitor project, dose response (AID 493073); format: functional;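 further: SK-MEL-5 melanoma cells with luciferase driven by the MITF target TRPM1 promoter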
T6 sequence (O75030 whole entry): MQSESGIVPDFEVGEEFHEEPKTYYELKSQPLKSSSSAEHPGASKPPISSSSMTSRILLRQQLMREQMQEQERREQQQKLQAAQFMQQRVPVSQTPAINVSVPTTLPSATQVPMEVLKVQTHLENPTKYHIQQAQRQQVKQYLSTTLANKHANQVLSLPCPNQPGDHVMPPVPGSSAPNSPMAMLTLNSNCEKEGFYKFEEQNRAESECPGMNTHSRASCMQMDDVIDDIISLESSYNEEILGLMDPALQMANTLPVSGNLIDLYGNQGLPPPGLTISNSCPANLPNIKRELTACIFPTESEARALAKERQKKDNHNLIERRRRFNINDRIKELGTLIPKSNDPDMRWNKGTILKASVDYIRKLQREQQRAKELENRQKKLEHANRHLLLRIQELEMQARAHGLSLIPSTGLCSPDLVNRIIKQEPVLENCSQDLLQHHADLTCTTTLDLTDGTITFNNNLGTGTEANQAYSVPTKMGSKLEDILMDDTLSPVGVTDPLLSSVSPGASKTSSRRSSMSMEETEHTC

Large T antigen = Large T antigen (Simian virus 40, UniProt P03070); format: functional, Betapolyomavirus macacae;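 further: Confirmatory-stage PubChem screen for compounds that inhibit SV40 T antigen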
Jurkat = assay: blockers of NF-kB activation in T cells – Jurkat, luciferase reporter, luminescence, B- and T-cell, dose response (AID 489004); format: functional, cell-based; conditions: Homo sapiens;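 further: NF-kB luciferase reporter Jurkat cells stimulated with PMA plus ionomycin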
[14] = HEK-293T viability loss, compound-treated – cell-based, uHTS hits, cytotoxicity control for B/T-cell NF-kB inhibitor project, dose response (AID 489019); format: functional;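 further: IC50 reflects cytotoxicity as loss of cell viability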
[15] = biological target: T7, Rac GTPase-activating protein 1 (Homo sapiens, UniProt Q9H0H5); assay: blockers of MgcRacGAP-driven Rac1 GTP hydrolysis – biochemical, ADP Hunter fluorescence, primary and confirmatory, confirmation (AID 624330); format: functional
T7 sequence (Q9H0H5 whole entry): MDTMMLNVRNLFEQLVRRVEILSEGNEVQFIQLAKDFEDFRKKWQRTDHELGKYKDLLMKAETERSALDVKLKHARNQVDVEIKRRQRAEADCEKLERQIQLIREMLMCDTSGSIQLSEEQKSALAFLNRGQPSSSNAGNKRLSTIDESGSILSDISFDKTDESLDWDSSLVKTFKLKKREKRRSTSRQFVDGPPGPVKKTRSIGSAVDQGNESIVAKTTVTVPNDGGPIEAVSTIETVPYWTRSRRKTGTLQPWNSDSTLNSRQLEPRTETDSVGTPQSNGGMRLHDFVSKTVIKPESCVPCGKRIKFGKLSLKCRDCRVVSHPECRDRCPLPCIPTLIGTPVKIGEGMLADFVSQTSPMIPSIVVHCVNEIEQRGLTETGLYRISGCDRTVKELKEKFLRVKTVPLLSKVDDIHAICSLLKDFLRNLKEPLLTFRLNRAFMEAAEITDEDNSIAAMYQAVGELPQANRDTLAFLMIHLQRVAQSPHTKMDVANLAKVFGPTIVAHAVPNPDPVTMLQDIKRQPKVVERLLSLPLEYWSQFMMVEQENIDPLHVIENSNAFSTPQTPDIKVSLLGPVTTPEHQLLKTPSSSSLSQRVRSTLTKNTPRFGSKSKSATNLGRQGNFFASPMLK

Chain of Large T antigen (P03070 whole entry): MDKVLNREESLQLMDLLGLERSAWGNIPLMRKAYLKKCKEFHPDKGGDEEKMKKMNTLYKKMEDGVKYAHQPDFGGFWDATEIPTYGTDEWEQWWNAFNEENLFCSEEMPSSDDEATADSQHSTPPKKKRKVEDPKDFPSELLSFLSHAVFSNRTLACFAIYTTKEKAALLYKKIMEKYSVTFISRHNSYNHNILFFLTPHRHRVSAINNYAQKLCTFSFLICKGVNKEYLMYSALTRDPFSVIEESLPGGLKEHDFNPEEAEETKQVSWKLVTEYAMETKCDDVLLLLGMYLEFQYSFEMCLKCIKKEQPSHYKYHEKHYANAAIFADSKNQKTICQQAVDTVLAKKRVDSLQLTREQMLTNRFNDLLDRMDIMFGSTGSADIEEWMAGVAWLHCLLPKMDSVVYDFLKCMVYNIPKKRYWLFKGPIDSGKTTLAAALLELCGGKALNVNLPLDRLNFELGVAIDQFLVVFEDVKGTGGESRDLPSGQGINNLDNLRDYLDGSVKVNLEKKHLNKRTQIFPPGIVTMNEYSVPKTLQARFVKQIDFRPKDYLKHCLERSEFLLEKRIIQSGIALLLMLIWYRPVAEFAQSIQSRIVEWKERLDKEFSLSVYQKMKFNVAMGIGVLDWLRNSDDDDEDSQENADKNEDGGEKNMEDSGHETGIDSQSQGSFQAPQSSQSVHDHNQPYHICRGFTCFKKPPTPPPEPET

## CC(=O)Oc1cccc(/C=C2\Sc3ccccc3C2=O)c1
[1]
  IC50: 3.15 µM (active)
[2]
  IC50: 3.99 µM (active)
[3]
  IC50: 3.32 µM (active)
Caspase-3
  IC50: 24.9 µM (active)

## Cc1ccc(CNc2c([N+](=O)[O-])nn(-c3ccc4c(c3)OCCO4)[n+]2[O-])cc1
[1]
  IC50: 4.7 µM (active)
[2]
  IC50: > 100 µM (inactive)
[3]
  IC50: > 100 µM (inactive)
Caspase-3
  IC50: 66.5 µM (active)

## CCOc1ccc(C(=O)Nc2nnc(SCC(=O)NCC3CCCO3)s2)cc1 (stereo not given)
[4]
  AC50: 3.43 µM (active)
[5]
  AC50: > 52 µM (inactive)
HEK293
  AC50: 1.52 µM (active)
[6]
  IC50: > 67.5 µM (inactive)
[7]
  AC50: 3.95 µM (active)
cells
  IC50: > 67.5 µM (inactive)

## O=S(=O)(c1ccc(NC(=S)NCc2cccnc2)cc1)N1CCCCC1
BJ [8]
  EC50: 0.767 µM (active)
BJ [9]
  EC50: 0.594 µM (inconclusive)
[10]
  EC50: 20.5 µM (active)
INS1
  AC50: 1.11 µM (active)
BJ [11]
  EC50: > 150 µM (not active)
BJ [12]
  EC50: 0.623 µM (active)

## COc1cc(OC)cc(C(=O)N[C@H](C(=O)Nc2nc3ccccc3[nH]2)C(C)C)c1
BJ [8]
  EC50: 1.51 µM (inconclusive)
BJ [9]
  EC50: 2.73 µM (active)
[10]
  EC50: 1.91 µM (active)
BJ [11]
  EC50: 1.48 µM (inconclusive)
[13]
  AC50: 2.44 µM (active)
BJ [12]
  EC50: 0.553 µM (active)

## CC(C)(C)C(=O)OCc1nc(-c2ccc(F)cc2)cs1
[1]
  IC50: 7.4 µM (active)
[2]
  IC50: 28.9 µM (active)
[3]
  IC50: 55.3 µM (active)
Caspase-3
  IC50: 28.3 µM (active)

## COc1cc(/C=N/NC(=S)Nc2cccc(C(=O)O)c2)ccc1O
Large T antigen
  IC50: 22.1 µM (active)
Jurkat
  IC50: 7.92 µM (active)
HEK293
  AC50: 1.9 µM (active)
[14]
  IC50: > 80 µM (inactive)
[15]
  IC50: 44.9 µM (active)
